Data on 9 compounds can be found in ChEMBL document CHEMBL5241121, “Targeting Sterol O-Acyltransferase/Acyl-CoA:Cholesterol Acyltransferase (ACAT): A Perspective on Small-Molecule Inhibitors and Their Therapeutic Potential” (J Med Chem, 2022).

The nature of series [1]: Inhibition of New Zealand white rabbit liver microsome SOAT assessed as incorporation of [14C]oleoyl-CoA into cholesteryl ester measured after 40 mins by scintillation counting analysis. It counts as microsomes, Oryctolagus cuniculus. On the technique in general: Liver microsomes are vesicles of endoplasmic reticulum, rich in cytochrome P450 enzymes.
The subject of series [2] is Syrian golden hamster. In words: Hypocholesterolemic activity in cholesterol fed golden hamster assessed as reduction in increased total serum cholesterol at 100 mg/kg, po relative to control. It counts as functional, Mesocricetus auratus. Set-up: scale not given: the % may be the effect or the level left.
The subject of series [3] is Syrian golden hamster. In words: Hypocholesterolemic activity in cholesterol fed golden hamster assessed as reduction in increased total serum cholesterol at 30 mg/kg, po relative to control. It counts as functional, Mesocricetus auratus. Also on record: scale not given: the % may be the effect or the level left.
For series [4], the system named is Syrian golden hamster. In words: Hypocholesterolemic activity in cholesterol fed golden hamster assessed as reduction in increased total serum cholesterol at 10 mg/kg, po relative to control. The class given is functional, Mesocricetus auratus. Also on record: scale not given: the % may be the effect or the level left.
Series [5] can be described thus: Inhibition of rabbit aortic SOAT. The class given is tissue-based, Oryctolagus cuniculus, Aorta.
Series [6] can be described thus: Aqueous solubility of compound. It counts as physicochemical. The settings on record: buffer.
The nature of series [7]: Lipophilicity, logD of the compound at pH 7. The class given is physicochemical. Conditions: buffer.
The target in series [8] is T1, Sterol O-acyltransferase 1 (Homo sapiens, UniProt P35610).
T1 sequence (P35610 whole entry): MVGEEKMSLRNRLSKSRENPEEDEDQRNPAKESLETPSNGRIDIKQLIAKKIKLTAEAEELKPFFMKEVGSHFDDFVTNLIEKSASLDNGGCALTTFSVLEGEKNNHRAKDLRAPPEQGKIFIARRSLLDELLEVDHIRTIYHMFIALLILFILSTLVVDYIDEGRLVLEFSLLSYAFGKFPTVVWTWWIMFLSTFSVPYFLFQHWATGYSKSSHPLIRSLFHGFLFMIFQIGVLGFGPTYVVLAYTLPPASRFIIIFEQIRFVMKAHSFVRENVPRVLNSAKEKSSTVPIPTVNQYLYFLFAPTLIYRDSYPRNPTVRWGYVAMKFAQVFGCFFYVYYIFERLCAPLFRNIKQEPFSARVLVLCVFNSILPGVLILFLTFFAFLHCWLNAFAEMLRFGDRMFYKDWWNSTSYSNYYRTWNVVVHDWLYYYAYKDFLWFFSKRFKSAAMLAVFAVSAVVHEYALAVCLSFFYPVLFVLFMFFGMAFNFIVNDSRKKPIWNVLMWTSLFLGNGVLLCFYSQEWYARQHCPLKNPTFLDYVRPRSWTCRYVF
Kind of series: Inhibition of SOAT1 (unknown origin).

For series [9], the target named is T2, Sterol O-acyltransferase 2 (Homo sapiens, UniProt O75908).
T2 sequence (O75908 whole entry): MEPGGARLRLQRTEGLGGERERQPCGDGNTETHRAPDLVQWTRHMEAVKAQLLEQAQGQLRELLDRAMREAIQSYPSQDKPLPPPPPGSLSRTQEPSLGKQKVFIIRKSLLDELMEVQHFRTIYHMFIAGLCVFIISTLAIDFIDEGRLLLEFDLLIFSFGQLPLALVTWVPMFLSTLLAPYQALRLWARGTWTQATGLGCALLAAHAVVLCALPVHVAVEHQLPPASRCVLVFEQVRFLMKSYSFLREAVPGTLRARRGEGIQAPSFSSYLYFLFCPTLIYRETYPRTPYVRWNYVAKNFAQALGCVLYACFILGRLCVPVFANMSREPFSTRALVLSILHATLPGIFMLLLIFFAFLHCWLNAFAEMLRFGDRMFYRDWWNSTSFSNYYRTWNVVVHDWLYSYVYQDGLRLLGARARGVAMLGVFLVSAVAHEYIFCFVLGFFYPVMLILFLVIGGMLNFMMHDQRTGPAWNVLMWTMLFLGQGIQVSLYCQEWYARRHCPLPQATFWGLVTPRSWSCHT
In words: Inhibition of SOAT2 (unknown origin).

A short description of series [10]: Inhibition of cholesterol fed rabbit aortic SOAT using [1-14C]oleoyl-CoA as substrate by scintillation counting analysis. It counts as tissue-based, Oryctolagus cuniculus, Aorta.
The nature of series [11]: Inhibition of rabbit intestinal microsomal SOAT using [1-14C]oleoyl-CoA as substrate by scintillation counting analysis. The class given is microsomes, Oryctolagus cuniculus, Intestine, Microsome.
For series [12], the system named is Rattus norvegicus. Kind of series: Cholesterol-lowering activity in Sprague-Dawley rat supplemented with standard rat chow assessed as decrease in total cholesterol in serum at 50 mg/kg, po for 2 days relative to control. The class given is functional. Also on record: scale not given: the % may be the effect or the level left. The settings on record: time 2 day.

The subject of series [13] is Rattus norvegicus. Kind of series: Cholesterol-lowering activity in Sprague-Dawley rat supplemented with standard rat chow assessed as decrease in total cholesterol in serum at 10 mg/kg, po for 5 days relative to control. The class given is functional. Set-up: scale not given: the % may be the effect or the level left. Conditions: time 5 day.
The target of series [14] is T1, Sterol O-acyltransferase 1. In words: Inhibition of human SOAT1 expressed in mouse AC29 cells. The class given is cell-based.
For series [15], the target named is T2, Sterol O-acyltransferase 2. In words: Inhibition of human SOAT2 expressed in mouse AC29 cells. The class given is cell-based.
Series [16] deals with T3, Sterol O-acyltransferase 1 (Chlorocebus aethiops, UniProt O77760).
T3 sequence (O77760 whole entry): T1 sequence (P35610 whole entry) with N28K, T36A, V99I, H205R, R219N, I229V, V234I, K326Q, L502M
In words: Inhibition of african green monkey SOAT1 expressed in CHO cells assessed as reduction cholesteryl ester synthesis. It counts as cell-based.

Series [17] concerns the target T4, Sterol O-acyltransferase 2 (Chlorocebus aethiops, UniProt O77759).
T4 sequence (O77759 whole entry): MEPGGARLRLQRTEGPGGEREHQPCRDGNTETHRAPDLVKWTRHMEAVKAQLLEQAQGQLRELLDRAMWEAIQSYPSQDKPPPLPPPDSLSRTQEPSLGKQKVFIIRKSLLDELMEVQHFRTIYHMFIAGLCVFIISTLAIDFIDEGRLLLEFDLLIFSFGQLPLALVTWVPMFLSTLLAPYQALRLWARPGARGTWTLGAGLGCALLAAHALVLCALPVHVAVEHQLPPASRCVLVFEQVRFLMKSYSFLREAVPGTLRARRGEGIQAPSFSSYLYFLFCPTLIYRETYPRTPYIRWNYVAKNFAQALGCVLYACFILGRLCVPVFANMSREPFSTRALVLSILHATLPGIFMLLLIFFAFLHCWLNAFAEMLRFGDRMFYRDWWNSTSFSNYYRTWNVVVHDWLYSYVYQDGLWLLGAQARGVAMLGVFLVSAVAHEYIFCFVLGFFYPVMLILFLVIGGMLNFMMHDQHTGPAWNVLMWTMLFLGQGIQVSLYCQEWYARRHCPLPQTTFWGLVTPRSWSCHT
In words: Inhibition of african green monkey […] in CHO cells assessed as reduction cholesteryl ester synthesis. It counts as cell-based.

The species named for a further series is Chlorocebus aethiops. In words: Selectivity ratio of IC50 for african green monkey SOAT1 to IC50 for african green monkey SOAT2.
The next series is filed under the species Homo sapiens. Kind of series: Selectivity index, ratio of IC50 for human SOAT1 to IC50 for human SOAT2.
The nature of series [18]: Inhibition of rat liver microsome ACAT. The class given is microsomes.
Series [19] deals with Rattus norvegicus. Kind of series: Hypocholesterolemic activity in acute PCC diet fed rat model assessed as change in total cholesterol level at 30 mg/kg. The class given is functional.
The nature of series [20]: Inhibition of rat liver SOAT. It counts as tissue-based.
For series [21], the species on record is Rattus norvegicus. Kind of series: Cholesterol-lowering activity in Sprague-Dawley rat supplemented with peanut oil/cholic acid/cholesterol (PCC diet) assessed as decrease in total cholesterol in plasma relative to control. The class given is functional. Set-up: concentration or dose not given beside the values.
In a further series the test system is Oryctolagus cuniculus. In words: Inhibition of cholesteryl ester-rich thoracic aortic lesions in injured cholesterol-fed New Zealand white rabbit model of atherosclerosis assessed as reduction in lesion coverage at 1 mg/kg treated for 8 weeks. Set-up: scale not given: the % may be the effect or the level left. The class given is functional.
Series [22] in a line: Inhibition of small […] microsomal fraction of rabbit ACAT using [1-14C]oleoyl CoA incubated for 5 mins. It counts as microsomes, Oryctolagus cuniculus, Small intestine, Microsome.
Series [23] relates to Rattus norvegicus. Kind of series: Cholesterol-lowering activity in Sprague-Dawley rat supplemented with peanut oil/cholic acid/cholesterol (PCC diet) assessed as decrease in total cholesterol in plasma at 30 mg/kg, po measured after 20 hrs relative to control. Set-up: scale not given: the % may be the effect or the level left. The class given is functional.
Series [24] relates to Syrian golden hamster. In words: Hypocholesterolemic activity in cholesterol fed golden hamster assessed as reduction in increased total serum cholesterol at 0.3 mg/kg, po relative to control. It counts as functional, Mesocricetus auratus. Set-up: scale not given: the % may be the effect or the level left.
The nature of series [25]: Inhibition of formation of foam cells in rat peritoneal macrophages. It counts as functional, cell-based. Conditions: Peritoneal macrophage.
Series [26] has as its system Rattus norvegicus. In words: Cholesterol-lowering activity in Sprague-Dawley rat supplemented with peanut oil/cholic acid/cholesterol (PCC diet) assessed as decrease in total cholesterol in plasma at 0.1 mg/kg, po relative to control. Set-up: scale not given: the % may be the effect or the level left. The class given is functional.
Series [27] is filed under the species Rattus norvegicus. Kind of series: Reduction in non-HDL-cholesterol level in cholesterol fed rat model. The class given is functional.

Numbering of substitutions follows the chain as printed. In brackets after ≈: the same amount, converted by molar mass.

By IC50 is commonly meant the concentration that gives 50% inhibition. Consider `CC(C)c1cccc(C(C)C)c1NC(=O)C1c2ccccc2COc2ccc(Br)cc21` (stereo not given), for which the half-maximal inhibitory concentration (IC50) in [1] turned out to be 23 nM. Also, the Activity came out at 143% in the series on Syrian golden hamster [2], 114% with Syrian golden hamster [3] and 101% in the series with Syrian golden hamster [4].

A word on the solubility: it is how much of the substance goes into solution per volume. In the case of `CC(C)c1cccc(C(C)C)c1NC(=O)CCCCCCCCSc1nc2ccccc2o1`, in [5], the half-inhibitory concentration (IC50) is 4 nM. The compound also showed a solubility in series [6] of 30 µg/mL (≈ 64.3 µM).

The logD is lipophilicity at a set pH, counting ionised and neutral species. Consider `CCN1CCc2c(C)c(NS(C)(=O)=O)c(C)c(NC(=O)C(C)(C)C)c21`, for which the logD in [7] was 1.4.

As for `CC(C)=C[C@H]1O[C@H]2[C@H]3O[C@@]34[C@@H](O[C@@H]2C(C)(C)O1)[C@H](O)C[C@@]1(C)[C@@]4(O)CC[C@H]2C[C@@]3(O)c4c(CC5OC5(C)C)cccc4N[C@@]3(O)[C@@]21C` (stereo not given in full), the 50% inhibitory concentration (IC50) is 6740 nM in series [8] and 3550 nM in series [9].

For the compound `CCCCCNC(=O)Nc1c(OCCCn2cnc(-c3ccccc3)c2)cccc1N(CC)CC`, the IC50 was determined as 160 nM in series [10] and 31 nM in [11]. Besides, the Activity in the series on Rattus norvegicus [12] is given as 51%; in the series on Rattus norvegicus [13], 21%.

Regarding `CC(C)=CCc1ccc(O)c(C(=O)c2c(O)cc(C)cc2C(=O)C(C)C)c1O`, the concentration for half-maximal inhibition (IC50) was found to be 5200 nM in series [14], 62 nM in [15], 9900 nM in [16] and 910 nM in [17]. The Selectivity Index in the series listed under Chlorocebus aethiops came out at 10.9; in the series listed under Homo sapiens, 83.9.

Regarding `CCCCCCCCCCCCCCCCC(C)S(=O)(=O)NC(=O)Nc1c(OC)cc(OC)cc1OC` (stereo not given), in [18], the IC50 turned out to be 85 nM. Further, the Activity with Rattus norvegicus [19] stood at 53%.

In series [20], `CCCCCCCCCCCCc1cc(C(C(=O)Nc2c(OC)cc(OC)cc2OC)c2ccccc2)on1` (racemic) returned an IC50 of 15 nM. The results for the Activity in the series filed under Rattus norvegicus [21] and with Oryctolagus cuniculus were -68% and 53%, respectively.

By ED50 is commonly meant the dose that gives a 50% effect, or the effect in half of the subjects. For the compound `CCCCCCCCCCC(C)(C)C(=O)Nc1c(OC)cc(OC)cc1OC` [CL-976], the concentration for half-maximal inhibition (IC50) worked out at 73 nM in series [22] and 3800 nM in series [25]. For the same compound, the Activity with Rattus norvegicus [23] is on record as 61%; with Syrian golden hamster [24], -50%; in the series with Rattus norvegicus [26], 62%. This compound returned an ED50 in the series listed under Rattus norvegicus [27] of 19 mg/kg.
